In patent US4401660A, “Ester derivatives of 5-O-mycaminosyl tylonolide and method of using same” (Eli Lilly and Company, priority 1981, dated 1983):

How the values were obtained:
Mycoplasma synoviae = assay: MIC, broth-dilution microtiter test (Table III); assay type: cell-based; set-up: unit not given here
Description: (§1) The MIC's in Table II were determined by standard agar-dilution assays. The MIC's in Table III were obtained using a conventional broth-dilution microtiter test.

Streptococcus sp. 80 = assay: MIC, broth-dilution microtiter test (Table III); assay type: cell-based; set-up: unit not given here
Description: as §1

[1] = test system: Pasteurella multocida 40G; assay: MIC, broth-dilution microtiter test (Table III); assay type: cell-based; set-up: unit not given here
Description: as §1

Mycoplasma hyorhinis = assay: MIC, broth-dilution microtiter test (Table III); assay type: cell-based; set-up: unit not given here
Description: as §1

[2] = test system: Pasteurella multocida 22A; assay: MIC, broth-dilution microtiter test (Table III); assay type: cell-based; set-up: unit not given here
Description: as §1

[3] = test system: Pasteurella haemolytica 23C; assay: MIC, broth-dilution microtiter test (Table III); assay type: cell-based; set-up: unit not given here
Description: as §1

[4] = test system: Pasteurella multocida 60A; assay: MIC, broth-dilution microtiter test (Table III); assay type: cell-based; set-up: unit not given here; conditions: avian isolate
Description: as §1

[5] = test system: Pasteurella multocida 17E; assay: MIC, broth-dilution microtiter test (Table III); assay type: cell-based; set-up: unit not given here; conditions: bovine isolate
Description: as §1

Mycoplasma gallisepticum = assay: MIC, broth-dilution microtiter test (Table III); assay type: cell-based; set-up: unit not given here
Description: as §1

Staphylococcus aureus = assay: MIC, broth-dilution microtiter test (Table III); assay type: cell-based; set-up: unit not given here
Description: as §1

[6] = test system: Pasteurella multocida 68C; assay: MIC, broth-dilution microtiter test (Table III); assay type: cell-based; set-up: unit not given here
Description: as §1

[7] = test system: Pasteurella haemolytica 41D; assay: MIC, broth-dilution microtiter test (Table III); assay type: cell-based; set-up: unit not given here
Description: as §1

[8] = test system: Pasteurella haemolytica 22C; assay: MIC, broth-dilution microtiter test (Table III); assay type: cell-based; set-up: unit not given here
Description: as §1

[9] = test system: Staphylococcus aureus V41; assay: MIC, standard agar-dilution assay (Table II); assay type: cell-based; set-up: unit not given here; conditions: Staphylococcus aureus V41, penicillin-resistant strain
Description: as §1

[10] = test system: Staphylococcus aureus S13E; assay: MIC, standard agar-dilution assay (Table II); assay type: cell-based; set-up: unit not given here
Description: as §1

[11] = test system: Staphylococcus epidermidis EPI1; assay: MIC, standard agar-dilution assay (Table II); assay type: cell-based; set-up: unit not given here
Description: as §1

[12] = test system: Haemophilus influenzae Holt; assay: MIC, standard agar-dilution assay (Table II); assay type: cell-based; set-up: unit not given here; conditions: ampicillin-sensitive strain
Description: as §1

[13] = test system: Streptococcus pyogenes C203; assay: MIC, standard agar-dilution assay (Table II); assay type: cell-based; set-up: unit not given here
Description: as §1

[14] = test system: Streptococcus Group D X66; assay: MIC, standard agar-dilution assay (Table II); assay type: cell-based; set-up: unit not given here
Description: as §1

[15] = test system: Staphylococcus aureus X1.1; assay: MIC, standard agar-dilution assay (Table II); assay type: cell-based; set-up: unit not given here
Description: as §1

[16] = test system: Streptococcus pneumoniae Park I; assay: MIC, standard agar-dilution assay (Table II); assay type: cell-based; set-up: unit not given here
Description: as §1

[17] = test system: Haemophilus influenzae R252; assay: MIC, standard agar-dilution assay (Table II); assay type: cell-based; set-up: unit not given here; conditions: Haemophilus influenzae R252, ampicillin-resistant strain
Description: as §1

[18] = test system: Staphylococcus aureus X400; assay: MIC, standard agar-dilution assay (Table II); assay type: cell-based; set-up: unit not given here; conditions: Staphylococcus aureus X400, methicillin-resistant strain
Description: as §1

[19] = test system: Staphylococcus epidermidis EPI2; assay: MIC, standard agar-dilution assay (Table II); assay type: cell-based; set-up: unit not given here
Description: as §1

[20] = test system: Streptococcus Group D 9960; assay: MIC, standard agar-dilution assay (Table II); assay type: cell-based; set-up: unit not given here
Description: as §1

Pasteurella multocida = assay: Treatment of Pasteurella infections in chicks (Table V); assay type: in vivo, one-day-old chicks; conditions: Pasteurella multocida, sc, 4 h; 30 mg/kg by subcutaneous injection one and four hours post challenge; read-out: Deaths in Treated Chicks/Number Treated (converted)
Method in brief: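 Dosing was 30 mg/kg by subcutaneous injection, one and four hours after challenge. Day-old chicks received 0.1 ml of a 10^-3 dilution of a 20-hour tryptose broth culture of avian P. multocida subcutaneously. Nonmedicated infected chicks served as controls, ten per group.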

SMILES | minimal inhibitory concentration (MIC) (Mycoplasma synoviae) | minimal inhibitory concentration (MIC) (Streptococcus sp. 80) | minimal inhibitory concentration (MIC) [1] | minimal inhibitory concentration (MIC) (Mycoplasma hyorhinis) | minimal inhibitory concentration (MIC) [2] | minimal inhibitory concentration (MIC) [3] | minimal inhibitory concentration (MIC) [4] | minimal inhibitory concentration (MIC) [5] | minimal inhibitory concentration (MIC) (Mycoplasma gallisepticum) | minimal inhibitory concentration (MIC) (Staphylococcus aureus) | minimal inhibitory concentration (MIC) [6] | minimal inhibitory concentration (MIC) [7] | minimal inhibitory concentration (MIC) [8] | minimal inhibitory concentration (MIC) [9] | minimal inhibitory concentration (MIC) [10] | minimal inhibitory concentration (MIC) [11] | minimal inhibitory concentration (MIC) [12] | minimal inhibitory concentration (MIC) [13] | minimal inhibitory concentration (MIC) [14] | minimal inhibitory concentration (MIC) [15] | further results
CCC1OC(=O)CC(O)C(C)C(OC2OC(C)C(O)C(N(C)C)C2OC(C)=O)C(CC=O)CC(C)C(=O)C=CC(C)=CC1COC(=O)NCc1ccccc1 (stereo not drawn) [Compound 75] | < 0.048 | 0.39 | 12.5 | 0.78 | > 50 | 3.12 | 6.25 | 6.25 | 0.048 | 0.78 | 3.12 | 6.25 | 6.25 | 0.25 | 0.125 | 0.125 | 0.5 | 0.125 | 0.25 | 0.125 | minimal inhibitory concentration (MIC) [16]: 0.03; minimal inhibitory concentration (MIC) [17]: 1; minimal inhibitory concentration (MIC) [18]: 0.25; minimal inhibitory concentration (MIC) [19]: 0.125; minimal inhibitory concentration (MIC) [20]: 0.125; mortality at 30 mg/kg (Pasteurella multocida): 100%
CCC1OC(=O)CC(O)C(C)C(OC2OC(C)C(O)C(N(C)C)C2O)C(CC=O)CC(C)C(=O)C=CC(C)=CC1COC(=O)Cc1ccc([N+](=O)[O-])cc1 (stereo not drawn) [Compound 65] | < 0.05 | 0.195 | 1.56 | 0.78 | 3.12 | 3.12 | 3.12 | 3.12 | 0.195 | 0.39 | 3.12 | 3.12 | 3.12 | 0.125 | 0.125 | 0.125 | 1 | 0.06 | 0.125 | 0.125 | minimal inhibitory concentration (MIC) [16]: 0.03; minimal inhibitory concentration (MIC) [17]: 1; minimal inhibitory concentration (MIC) [18]: 0.125; minimal inhibitory concentration (MIC) [19]: 0.125; minimal inhibitory concentration (MIC) [20]: 0.125; mortality at 30 mg/kg (Pasteurella multocida): 73.3%
CCC1OC(=O)CC(O)C(C)C(OC2OC(C)C(O)C(N(C)C)C2OC(C)=O)C(CC=O)CC(C)C(=O)C=CC(C)=CC1COC(=O)OC (stereo not drawn) [Compound 73] | 0.097 | 0.39 | 6.25 | 0.39 | > 50 | 6.25 | 6.25 | 6.25 | 0.097 | 0.78 | 3.12 | 3.12 | 6.25 | 0.25 | 0.25 | 0.25 | 1 | 0.25 | 0.25 | 0.25 | minimal inhibitory concentration (MIC) [16]: 0.03; minimal inhibitory concentration (MIC) [17]: 2; minimal inhibitory concentration (MIC) [18]: 0.25; minimal inhibitory concentration (MIC) [19]: 0.25; minimal inhibitory concentration (MIC) [20]: 0.25; mortality at 30 mg/kg (Pasteurella multocida): 0%
CCC1OC(=O)CC(O)C(C)C(OC2OC(C)C(OC(C)=O)C(N(C)C)C2OC(C)=O)C(CC=O)CC(C)C(=O)C=CC(C)=CC1COS(=O)(=O)c1ccc(C)cc1 (stereo not drawn) [Compound 55] | 0.05 | 0.05 | 6.25 | 0.78 | 6.25 | 3.12 | 3.12 | 3.12 | 0.05 | 0.195 | 3.12 | 6.25 | 3.12 | 0.125 | 0.25 | 0.25 | 1 | 0.06 | 0.125 | 0.125 | minimal inhibitory concentration (MIC) [16]: 0.03; minimal inhibitory concentration (MIC) [17]: 1; minimal inhibitory concentration (MIC) [18]: 0.25; minimal inhibitory concentration (MIC) [19]: 0.25; minimal inhibitory concentration (MIC) [20]: 0.125; mortality at 30 mg/kg (Pasteurella multocida): 100%
CCC(=O)OCC1C=C(C)C=CC(=O)C(C)CC(CC=O)C(OC2OC(C)C(O)C(N(C)C)C2OC(=O)CC)C(C)C(O)CC(=O)OC1CC (stereo not drawn) [Compound 10, 2',23-Di-O-Propionyl-OMT] | 0.097 | 0.195 | 1.56 | 0.78 | 6.25 | 6.25 | 1.56 | 1.56 | 0.097 | 0.39 | 1.56 | 6.25 | 6.25 | 0.5 | 0.5 | 0.25 | 2 | 0.25 | 0.5 | 0.25 | minimal inhibitory concentration (MIC) [16]: 0.125; minimal inhibitory concentration (MIC) [17]: 8; minimal inhibitory concentration (MIC) [18]: 0.5; minimal inhibitory concentration (MIC) [19]: 0.25; minimal inhibitory concentration (MIC) [20]: 0.5; mortality at 30 mg/kg (Pasteurella multocida): 10%
CCC1OC(=O)CC(O)C(C)C(OC2OC(C)C(O)C(N(C)C)C2OC(C)=O)C(CC=O)CC(C)C(=O)C=CC(C)=CC1COC(=O)C(C)(C)C (stereo not drawn) [Compound 67] | < 0.048 | < 0.78 | 3.12 | 0.39 | 3.12 | 6.25 | 3.12 | 3.12 | < 0.048 | 1.56 | 1.56 | 6.25 | 12.5 | 0.25 | 0.25 | 0.25 | 1 | 0.125 | 0.25 | 0.25 | minimal inhibitory concentration (MIC) [16]: 0.06; minimal inhibitory concentration (MIC) [17]: 1; minimal inhibitory concentration (MIC) [18]: 0.25; minimal inhibitory concentration (MIC) [19]: 0.25; minimal inhibitory concentration (MIC) [20]: 0.25; mortality at 30 mg/kg (Pasteurella multocida): 80%
